Assays:
[1] = tested on: HT-29; assay: Down-regulation of c-Myc mRNA expression in human HT-29 cells assessed as c-Myc mRNA level at 10 uM after 48 hrs by RT-qPCR analysis (reference value: 100%); assay type: functional
[2] = Selectivity index, ratio of IC50 for HEK293 cells to IC50 for human MCF7 cells; conditions: HEK293 cells versus MCF7 cells
[3] = tested on: HT-29; assay: Down-regulation of VEGFA protein expression in human HT-29 cells assessed as VEGFA protein level at 10 uM after 48 hrs by ELISA (reference value: 100%); assay type: functional
[4] = tested on: HT-29; assay: Cytotoxicity against human HT-29 cells assessed as decrease in cell viability after 2 days by MTT assay; assay type: functional, cell-based; conditions: HT-29, 48 h
[5] = tested on: HT-29; assay: Down-regulation of hTERT mRNA expression in human HT-29 cells assessed as hTERT mRNA level at 10 uM after 48 hrs by RT-qPCR analysis (reference value: 100%); assay type: functional
[6] = tested on: MCF7; assay: Cytotoxicity against human MCF7 cells assessed as decrease in cell viability after 2 days by MTT assay; assay type: functional, cell-based; conditions: MCF7, 48 h
[7] = Selectivity index, ratio of IC50 for HEK293 cells to IC50 for human HT-29 cells; assay type: toxicity; conditions: HEK293 cells versus HT-29 cells, read-out: Ratio IC50
[8] = tested on: HEK293; assay: Cytotoxicity against HEK293 cells assessed as decrease in cell viability after 2 days by MTT assay; assay type: ADME, cell-based; conditions: Homo sapiens, HEK293, 48 h
[9] = tested on: HT-29; assay: Down-regulation of c-Myc protein expression in human HT-29 cells assessed as c-Myc protein level at 10 uM after 48 hrs by ELISA (reference value: 100%); assay type: functional
[10] = tested on: HT-29; assay: Down-regulation of VEGFRA mRNA expression in human HT-29 cells assessed as VEGFRA mRNA level at 10 uM after 48 hrs by RT-qPCR analysis (reference value: 100%); assay type: functional

COc1cccc(N2CCCCC2)c1
Activity [1]: 63% | selectivity ratio [2]: 3 | Activity [3]: 42% | IC50 [4]: 26 µM | Activity [5]: 30% | IC50 [6]: 160 µM | selectivity ratio [7]: 20 | IC50 [8]: > 400 µM | Activity [9]: 100% | Activity [10]: 44%

From ChEMBL document CHEMBL4368926, “Arylpyridines, arylpyrimidines and related compounds as potential modulator agents of the VEGF, hTERT and c-Myc oncogenes” (Bioorg Med Chem, 2019)
